Results as given in ChEMBL document CHEMBL1212812, “Multi-target spectral moment QSAR versus ANN for antiparasitic drugs against different parasite species” (Bioorg Med Chem, 2010).
pIC50: −log10 of the molar value.

Key:
Format in all cases: functional, organism-based
Plasmodium falciparum = test: Antimicrobial activity against Plasmodium falciparum
Entamoeba histolytica = test: Antimicrobial activity against Entamoeba histolytica
Leishmania infantum = test: Antimicrobial activity against Leishmania infantum

Row | Structure (SMILES) | pIC50 (Plasmodium falciparum) | pIC50 (Entamoeba histolytica) | pIC50 (Leishmania infantum)
1 | COc1ccc2nc3ccc(N(CCCCCCCCN(c4ccc5nc6ccc(OC)cc6c(N)c5c4)c4ccc5nc6ccc(OC)cc6c(N)c5c4)c4ccc5nc6ccc(OC)cc6c(N)c5c4)cc3c(N)c2c1 |  |  | 6.00
2 | COc1ccc2nc3ccc(COC(=O)c4ccc(Cl)cc4)cc3c(Cl)c2c1 |  |  | 3.81
3 | COC(=O)OCc1ccc2nc3ccc(OC)cc3c(N)c2c1 |  |  | 6.00
4 | COC(=O)OCc1ccc2nc3ccc(OC)cc3c(Cl)c2c1 |  |  | 5.52
5 | CCCC(=O)OCc1ccc2nc3ccc(OC)cc3c(Cl)c2c1 |  |  | 5.52
6 | COc1ccc(C(=O)OCc2ccc3nc4ccc(OC)cc4c(Cl)c3c2)cc1 |  |  | 3.90
7 | COc1ccc2nc3ccc(COC(=O)c4ccccc4)cc3c(N)c2c1 |  |  | 4.46
8 | CCCCCc1ccc(NC(P(=O)(O)O)P(=O)(O)O)cc1 | 4.34 | 3.88 | 
9 | COc1ccc2nc3ccc(COC(=O)c4ccc(F)cc4)cc3c(N)c2c1 |  |  | 6.00
10 | COc1ccc2nc3ccc(COC(=O)CC(C)C)cc3c(N)c2c1 |  |  | 5.70
11 | C=P(O)(O)C(Nc1c(F)c(F)c(F)c(F)c1F)P(=O)(O)O (stereo not given) | 3.70 | 3.70 | 
12 | CCCC(=O)OCc1ccc2nc3ccc(OC)cc3c(N)c2c1 |  |  | 5.52
13 | COc1ccc2nc3ccc(NCCCCCCNc4ccc5nc6ccc(OC)cc6c(N)c5c4)cc3c(N)c2c1 |  |  | 6.00
14 | O=P(O)(O)C(Nc1ccc(O)cn1)P(=O)(O)O | 3.71 | 4.02 | 
15 | COc1ccc2nc3ccc(N(CCCCCCN(c4ccc5nc6ccc(OC)cc6c(N)c5c4)c4ccc5nc6ccc(OC)cc6c(N)c5c4)c4ccc5nc6ccc(OC)cc6c(N)c5c4)cc3c(N)c2c1 |  |  | 5.15
16 | COc1ccc2nc3ccc(N(CCCCCCCN(c4ccc5nc6ccc(OC)cc6c(Cl)c5c4)c4ccc5nc6ccc(OC)cc6c(Cl)c5c4)c4ccc5nc6ccc(OC)cc6c(Cl)c5c4)cc3c(Cl)c2c1 |  |  | 6.00
17 | COc1ccc2nc3ccc(N(CCCCCN(c4ccc5nc6ccc(OC)cc6c(N)c5c4)c4ccc5nc6ccc(OC)cc6c(N)c5c4)c4ccc5nc6ccc(OC)cc6c(N)c5c4)cc3c(N)c2c1 |  |  | 5.70
18 | COc1ccc2nc3ccc(N(CCCCCN(c4ccc5nc6ccc(OC)cc6c(Cl)c5c4)c4ccc5nc6ccc(OC)cc6c(Cl)c5c4)c4ccc5nc6ccc(OC)cc6c(Cl)c5c4)cc3c(Cl)c2c1 |  |  | 5.70
19 | COc1ccc2nc3ccc(N(CCCCCCCN(c4ccc5nc6ccc(OC)cc6c(N)c5c4)c4ccc5nc6ccc(OC)cc6c(N)c5c4)c4ccc5nc6ccc(OC)cc6c(N)c5c4)cc3c(N)c2c1 |  |  | 3.86

Row | Structure (SMILES) | pIC50 (Plasmodium falciparum) | pIC50 (Entamoeba histolytica) | pIC50 (Leishmania infantum)
20 | CCCCCC(C)CNC(P(=O)(O)O)P(=O)(O)O (stereo not given) | 3.99 | 4.19 | 
21 | COc1ccc2nc3ccc(CBr)cc3c(N)c2c1 |  |  | 5.40
22 | COc1ccc2nc3ccc(CBr)cc3c(Cl)c2c1 |  |  | 5.22
23 | COc1ccc2nc3ccc(N(CCCCCCN(c4ccc5nc6ccc(OC)cc6c(Cl)c5c4)c4ccc5nc6ccc(OC)cc6c(Cl)c5c4)c4ccc5nc6ccc(OC)cc6c(Cl)c5c4)cc3c(Cl)c2c1 |  |  | 4.17
24 | O=P(O)(O)C(Nc1ncc(Br)cc1Br)P(=O)(O)O | 3.70 | 4.54 | 
25 | O=P(O)(O)C(Nc1ccc(-c2ccccc2)cc1)P(=O)(O)O |  | 5.05 | 
26 | O=P(O)(O)C(O)(CCc1cccnc1)P(=O)(O)O | 3.70 | 3.70 | 
27 | CCCCC(O)(P(=O)(O)O)P(=O)(O)O |  | 3.70 | 
28 | O=P(O)(O)C(Nc1cccnc1Cl)P(=O)(O)O | 3.70 | 3.70 | 
29 | CCOP(=O)(OCC)C(Nc1cc(C)ccn1)P(=O)(OCC)OCC | 3.70 | 3.70 | 
30 | CCn1c2ccccc2c2ccc(NC(P(=O)(O)O)P(=O)(O)O)cc21 |  | 3.70 | 
31 | O=P(O)(O)C(O)(Cc1ccccn1)P(=O)(O)O |  | 3.70 | 
32 | CCCC(O)(P(=O)(O)O)P(=O)(O)O |  | 3.70 | 
33 | O=P(O)(O)CC(c1ccncc1)P(=O)(O)O (stereo not given) | 3.70 | 3.70 | 
34 | CCCCCCc1ccc(NC(P(=O)(O)O)P(=O)(O)O)cc1 | 3.99 | 4.44 | 
35 | CC(N)CC(O)(P(=O)(O)O)P(=O)(O)O (stereo not given) | 3.70 | 3.70 | 
36 | O=P(O)(O)C(O)(CSc1ccncc1)P(=O)(O)O |  | 3.70 | 
37 | O=P(O)(O)C(Nc1cccc(-c2ccccc2)c1)P(=O)(O)O | 3.70 | 5.15 | 
38 | Cc1ccnc(NC(P(=O)(O)O)P(=O)(O)O)c1 | 3.70 | 3.70 | 

Row | Structure (SMILES) | pIC50 (Plasmodium falciparum) | pIC50 (Entamoeba histolytica) | pIC50 (Leishmania infantum)
39 | O=P(O)(O)C(O)(Cc1ccncc1)P(=O)(O)O | 3.70 | 3.70 | 
40 | O=P(O)(O)C(Nc1ccc2c(c1)CCC2)P(=O)(O)O | 3.70 | 3.70 | 
41 | O=P(O)(O)C(O)(Cc1ccccc1)P(=O)(O)O | 5.10 | 3.70 | 
42 | CCCCCCNC(P(=O)(O)O)P(=O)(O)O [(HEXYLAMINO)METHYLENEDIPHOSPHONIC ACID] |  | 3.70 | 
43 | O=P(O)(O)C(N1CCOCC1)P(=O)(O)O [MORPHOLINOMETHYLENEDIPHOSPHONIC ACID] |  | 3.70 | 
44 | N=C(N)NCCCCCCCCCCNC(=N)N [SYNTHALIN] | 4.80 |  | 
45 | COc1cc(C)c2c(Oc3cccc(C(F)(F)F)c3)c(OC)cc(NC(C)CCCN)c2n1 (stereo not given) [TAFENOQUINE] | 3.83 |  | 
46 | CC(C)(C)NCc1cc(Nc2ccnc3cc(Cl)ccc23)cc(-c2ccc(Cl)cc2)c1O [TEBUQUINE] | 4.28 |  | 
47 | O=C1NC(=O)C(C(=O)Nc2ccc(Cl)cc2)c2ccccc21 (stereo not given) [TESICAM] | 4.80 |  | 
48 | C/C=C1/C[n+]2ccc3c([nH]c4ccccc43)c2C[C@@H]1C1=CN2c3ccccc3[C@]34CCN5C/C(=C/C)[C@H](C[C@H]53)[C@@H]([C@@H]1O)[C@H]24 [TETRADEHYDROLONGICAUDATINE] | 6.00 |  | 
49 | CC1=C(O)[C@@](C)(CCC(C)C)SC1=O [THIOLACTOMYCIN 3] | 3.59 |  | 
50 | CC(C)=CCC/C(C)=C/C[C@@]1(C)SC(=O)C(C)=C1O [THIOLACTOMYCIN 4] | 5.10 |  | 
51 | CC1=C(O)[C@@](C)(CCC(C)CCCC(C)C)SC1=O (stereo not given in full) [THIOLACTOMYCIN 6] | 4.15 |  | 
52 | CC1SC(=O)C(C)(C)C1=O (stereo not given) [THIOLACTOMYCIN 10] | 4.34 |  | 
53 | CC(C)=CCC/C(C)=C/CC1(C)C(=O)S[C@@H](C)C1=O (stereo not given in full) [THIOLACTOMYCIN 11] | 4.52 |  | 
54 | C=C/C(C)=C/[C@@]1(C)SC(=O)C(C)=C1O [THIOLACTOMYCIN] | 4.31 |  | 
55 | CC1=C(O)SC(C)C1=O (stereo not given) [THIOLACTONE] | 3.33 |  | 
56 | C/C=C1/CN2CCc3c([nH]c4ccccc34)[C@@H]2C[C@@H]1Cc1nccc2c1[nH]c1ccccc12 [USAMBARENSINE] | 5.70 |  | 

Second part, the molecule after the results:

Row | pIC50 (Plasmodium falciparum) | pIC50 (Entamoeba histolytica) | pIC50 (Leishmania infantum) | Structure (SMILES)
57 | 3.70 | 4.36 |  | O=P(O)(O)C(Nc1ccc(Br)cn1)P(=O)(O)O
58 |  |  | 3.74 | COc1ccc2nc3ccc(CO)cc3c(Cl)c2c1
59 |  |  | 3.86 | COc1ccc2nc3ccc(COC(=O)c4ccccc4)cc3c(Cl)c2c1
60 |  |  | 5.52 | COc1ccc2nc3ccc(COC(=O)c4ccc(Cl)cc4)cc3c(N)c2c1
61 |  |  | 4.44 | COc1ccc2nc3ccc(COC(=O)CC(C)C)cc3c(Cl)c2c1
62 |  |  | 5.70 | COc1ccc(C(=O)OCc2ccc3nc4ccc(OC)cc4c(N)c3c2)cc1
63 |  |  | 5.30 | COc1ccc2nc3ccc(NCCCCNc4ccc5nc6ccc(OC)cc6c(N)c5c4)cc3c(N)c2c1
64 |  |  | 5.05 | COc1ccc2nc3cc(NCCCCCCCNc4ccc5nc6ccc(OC)cc6c(N)c5c4)ccc3c(N)c2c1
65 | 4.64 | 4.35 |  | CN(CCCc1ccccc1)CCCC(O)(P(=O)(O)O)P(=O)(O)O
66 | 3.70 | 4.68 |  | O=P(O)(O)C(O)(CCCCNCCCCc1ccccc1)P(=O)(O)O
67 | 5.52 | 4.64 |  | CN(CCCCc1ccccc1)CCCCC(O)(P(=O)(O)O)P(=O)(O)O
68 |  |  | 6.00 | COc1ccc2nc3ccc(C)cc3c(N)c2c1
69 |  |  | 5.00 | COc1ccc2nc3ccc(C)cc3c(Cl)c2c1
70 |  |  | 5.00 | COc1ccc2nc3ccc(NCCCCNc4ccc5nc6ccc(OC)cc6c(Cl)c5c4)cc3c(Cl)c2c1
71 |  |  | 5.52 | COc1ccc2nc3ccc(NCCCCCCNc4ccc5nc6ccc(OC)cc6c(Cl)c5c4)cc3c(Cl)c2c1
72 |  | 3.70 |  | O=P(O)(O)C(Nc1nccc2ccccc12)P(=O)(O)O
73 | 3.70 | 3.70 |  | O=P(O)(O)C(Nc1ccccn1)P(=O)(O)O
74 | 5.30 | 3.70 |  | Cc1csc(NC(P(=O)(O)O)P(=O)(O)O)n1
75 | 3.70 | 3.70 |  | O=P(O)(O)C(CNc1ccncc1)P(=O)(O)O
76 |  | 3.70 |  | O=P(O)(O)C(CNc1ccccn1)P(=O)(O)O

Row | pIC50 (Plasmodium falciparum) | pIC50 (Entamoeba histolytica) | pIC50 (Leishmania infantum) | Structure (SMILES)
77 | 3.70 | 3.70 |  | NCCCCC(O)(P(=O)(O)O)P(=O)(O)O
78 | 3.70 | 3.70 |  | O=P(O)(O)C(O)(Cc1c[nH]cn1)P(=O)(O)O
79 | 3.70 | 3.70 |  | CCOP(=O)(OCC)C(Nc1ncccc1C)P(=O)(OCC)OCC
80 | 3.70 | 3.70 |  | O=P(O)(O)CC(c1cccnc1)P(=O)(O)O (stereo not given)
81 | 3.70 | 3.70 |  | Nc1ccc(CC(O)(P(=O)(O)O)P(=O)(O)O)cc1
82 | 3.70 | 3.70 |  | O=P(O)(O)C(N1CCCCC1)P(=O)(O)O
83 | 3.70 | 3.70 |  | O=P(O)(O)C(Nc1ncccc1OCc1ccccc1)P(=O)(O)O
84 |  | 5.22 |  | CN(CCOc1ccccc1)CCC(O)(P(=O)(O)O)P(=O)(O)O
85 | 3.70 | 3.70 |  | O=P(O)(O)CC(c1ccccn1)P(=O)(O)O (stereo not given)
86 | 3.70 | 3.70 |  | CCc1cccc(NC(P(=O)(O)O)P(=O)(O)O)c1
87 | 3.70 | 3.70 |  | Cc1cccnc1NC(P(=O)(O)O)P(=O)(O)O
88 | 3.70 | 3.70 |  | CCCCCCCCCCCCCCCCCC(O)(P(=O)(O)O)P(=O)(O)O
89 | 3.70 | 3.70 |  | O=P(O)(O)C(N1CCC(O)CC1)P(=O)(O)O
90 | 4.00 |  |  | CC(C)=CC[C@@]1(C)SC(=O)C(C)=C1O [THIOLACTOMYCIN 2]
91 | 4.24 |  |  | CC(C)=CCCC(C)CC[C@@]1(C)SC(=O)C(C)=C1O (stereo not given in full) [THIOLACTOMYCIN 5]
92 | 5.10 |  |  | CC(C)=CCC/C(C)=C/CC/C(C)=C/C[C@@]1(C)SC(=O)C(C)=C1O [THIOLACTOMYCIN 7]
93 | 4.80 |  |  | CC1=C(O)[C@@](C)(Cc2cccc(C(=O)c3ccccc3)c2)SC1=O [THIOLACTOMYCIN 8]
94 | 5.22 |  |  | CN1CCN(CCCN2c3ccccc3Sc3ccc(C(F)(F)F)cc32)CC1 [TRIFLUOPERAZINE]
95 | 5.10 |  |  | CCCCCCOc1c(OC)cc(NC(C)CCCN)c2nccc(C)c12 (stereo not given) [WR-242511]
